Target mRNA inhibition data for 77 sequences are collected here from the OligoGym collection.

The target of the data set is HSD17B13. The note with it: ASO, HepaRG.

After the bases stand the sugars from the 5' end (letter, count) and the backbone: PS all phosphorothioate, else s phosphorothioate and o phosphodiester by linkage. Methylation of C is not given here. e = 2'-O-(2-methoxyethyl) (MOE); k = constrained ethyl (cEt); d = 2'-deoxy (DNA); m = 2'-O-methyl

Consider AGTCAGTATCCCCTCA (sugars k3 d10 k3, PS), for which the target mRNA inhibition (0.02 µM) was 6%; the target mRNA inhibition (0.078 µM) came out at 14%; the target mRNA inhibition (0.313 µM) came to 32%; the target mRNA inhibition (1 µM) came out at 82%; the target mRNA inhibition (1.25 µM) turned out to be 70%; the target mRNA inhibition (5 µM) stood at 74%.

Where the note is “1 µM”, AGTCATTTTTAATACG (sugars k3 d10 k3, PS) showed a target mRNA inhibition of 13%.

Sequence “AGTCCATGCAAAAGCA (sugars k3 d1 m1 d8 k3, PS)” gave a target mRNA inhibition (0.02 µM) of 0%; a target mRNA inhibition (0.078 µM) of 21%; a target mRNA inhibition (0.313 µM) of 20%; a target mRNA inhibition (1 µM) of 73%; a target mRNA inhibition (1.25 µM) of 65%; a target mRNA inhibition (5 µM) of 75%. Where the note is “1 µM”, AGTCCTTGTGTAGTCC (sugars k3 d10 k3, PS) gave a target mRNA inhibition of 64%.

“AGTCGGTCACCTTTCA (sugars k3 d9 k3 e1, PS)”: the target mRNA inhibition is, setting by setting: (0.02 µM) 1%; (0.078 µM) 17%; (0.313 µM) 37%; (1 µM) 75%; (1.25 µM) 66%; (5 µM) 62%.

For the setting “1 µM”, AGTCGGTCACCTTTCA (sugars k3 d10 k3, PS) had a target mRNA inhibition of 66%. The same measure, in the same setting: for AGTCTACCACATACGC (sugars k3 d10 k3, PS) the value was 65%; for AGTCTTGATGTAGTGG (sugars k3 d10 k3, PS), 63%. As for AGTGAAATCTTGTGTA (sugars k3 d10 k3, PS), the target mRNA inhibition (1 µM) turned out to be 41%. Consider AGTGAATCATTCAGTA (sugars k3 d10 k3, PS), for which the target mRNA inhibition was found to be 49% (0.02 µM); 54% (0.078 µM); 80% (0.313 µM); 86% (1 µM); 93% (1.25 µM); 94% (5 µM).

With AGTGCATCTTAAGATA (sugars k3 d10 k3, PS), the target mRNA inhibition (1 µM) came out at 57%. As to AGTGCTTAGTTCATTG (sugars k3 d10 k3, PS), the target mRNA inhibition runs as follows: (0.02 µM) 0%; (0.078 µM) 0%; (0.313 µM) 31%; (1 µM) 84%; (1.25 µM) 58%; (5 µM) 84%. Regarding AGTGCTTTTGTGATCC (sugars k3 d10 k3, PS), the target mRNA inhibition (1 µM) worked out at 25%.

Sequence AGTGGGAGTCGGATTA (sugars k3 d10 k3, PS) gave a target mRNA inhibition (1 µM) of 50%. Same read-out and setting: for AGTGTAAGCTGAGAGT (sugars k3 d10 k3, PS) the value was 71%; for AGTTAATAGGACTAAA (sugars k3 d10 k3, PS), 13%; for AGTTAGGGAGCCAGCG (sugars k3 d10 k3, PS), 38%. For “AGTTATTAGAAGTCAG (sugars k3 d1 m1 d8 k3, PS)”, the target mRNA inhibition (1 µM) is 25%. On the same count and under the same terms, for AGTTTAGATTGCATAA (sugars k3 d10 k3, PS) the value was 50%. On the same count and under the same terms, under AGTTTTGGGACCAATA (sugars k3 d10 k3, PS) stands 31%; under AGTTTTTAAGAGGCAT (sugars k3 d10 k3, PS), 75%; under ATAAAAATCGCTGCTT (sugars k3 d10 k3, PS), 11%. Still for that read-out and setting: under ATAAAGCTTTGCAGCA (sugars k3 d10 k3, PS) stands 54%; under ATAACATGGCTGGCAT (sugars k3 d10 k3, PS), 14%.

Where the note is “1 µM”, “ATAACTACAAGAGGTT (sugars k3 d9 k3 e1, PS)” gave a target mRNA inhibition of 67%.

Sequence ATAACTACAAGAGGTT (sugars k3 d10 k3, PS) displayed a target mRNA inhibition (1 µM) of 64%. The same measure, in the same setting: under ATAAGAGCCAAACTGC (sugars k3 d10 k3, PS) stands 49%. Same read-out and setting: for ATAAGGCCGATTCATG (sugars k3 d10 k3, PS) the value was 38%; for ATAAGTAGTCTGCCTG (sugars k3 d10 k3, PS), 43%; for ATACGATGGAACAAAA (sugars k3 d10 k3, PS), 27%.

ATACTGTCCCAGCATT (sugars k3 d10 k3, PS): under “1 µM”, the target mRNA inhibition came out at 32%. Still for that read-out and setting: under ATACTTACCAATATGG (sugars k3 d10 k3, PS) stands 0%.

Consider “ATAGAGTTGCACCGTT (sugars k3 d1 m1 d8 k3, PS)”, for which the target mRNA inhibition (1 µM) turned out to be 59%.

As for “ATAGAGTTGCACCGTT (sugars k3 d9 k3 e1, PS)”, the target mRNA inhibition (1 µM) worked out at 71%. Same read-out and setting: for ATAGAGTTGCACCGTT (sugars k3 d10 k3, PS) the value was 57%; for ATAGCAAGCCAACAGA (sugars k3 d10 k3, PS), 37%.

For the setting “1 µM”, ATAGCCAGTACAGTTC (sugars k3 d10 k3, PS) had a target mRNA inhibition of 65%. Sequence ATATACATCCAAGTAA (sugars k3 d10 k3, PS) displayed a target mRNA inhibition (1 µM) of 18%. The same measure, in the same setting: under ATCAAATGTATGTGCT (sugars k3 d10 k3, PS) stands 73%; under “ATCAAGACATTCTAGC (sugars k3 d9 k3 e1, PS)”, 52%.

In turn, “ATCAAGACATTCTAGC (sugars k4 m1 d8 k3, PS)” gave a target mRNA inhibition (1 µM) of 37%.

ATCCAGATCTGCCCTA (sugars k3 d10 k3, PS): the target mRNA inhibition (1 µM) came out at 39%. Still for that read-out and setting: under ATCCATTCTATGCAAG (sugars k3 d10 k3, PS) stands 46%; under ATCCCGTTCTTGCCCA (sugars k3 d10 k3, PS), 30%.

Regarding ATCCTATATACATCCA (sugars k3 d10 k3, PS), the target mRNA inhibition is, setting by setting: (0.02 µM) 3%; (0.078 µM) 8%; (0.313 µM) 36%; (1 µM) 76%; (1.25 µM) 72%; (5 µM) 92%. Turning to ATCCTGTAAACACTTC (sugars k3 d10 k3, PS), the target mRNA inhibition (0.02 µM) turned out to be 11%; the target mRNA inhibition (0.078 µM) turned out to be 13%; the target mRNA inhibition (0.313 µM) came to 27%; the target mRNA inhibition (1 µM) is 79%; the target mRNA inhibition (1.25 µM) was determined as 66%; the target mRNA inhibition (5 µM) came out at 87%. Sequence “ATCCUATATACATCCA (sugars k3 d1 m1 d8 k3, PS)” displayed a target mRNA inhibition (1 µM) of 64%. Sequence ATCTACATGGATCCAA (sugars k3 d10 k3, PS) showed a target mRNA inhibition (1 µM) of 12%. On the same count and under the same terms, under ATCTAGAACACTTGCC (sugars k3 d10 k3, PS) stands 27%; under “ATCTATCAGACTTCTT (sugars k3 d9 k3 e1, PS)”, 51%. Still for that read-out and setting: under “ATCTCTGGGACCAAGG (sugars k3 d1 m1 d8 k3, PS)” stands 52%; under ATCTTAAGAGAAGGTG (sugars k3 d10 k3, PS), 43%. Still for that read-out and setting: for “ATCTTAAGATACCCAG (sugars k3 d9 k3 e1, PS)” the value was 71%; for “ATCTTATAAGACTATA (sugars k3 d9 k3 e1, PS)”, 53%. Turning to ATCTTATAAGACTATA (sugars k3 d10 k3, PS), under “1 µM”, the target mRNA inhibition stood at 32%. The same measure, in the same setting: for “ATCTTATAAGACTATA (sugars kkdddddddddkekek, PS)” the value was 30%; for “ATGAAGTTAGTATAGT (sugars k3 d1 m1 d8 k3, PS)”, 38%; for “ATGAAGTTAGTATAGT (sugars k3 d9 k3 e1, PS)”, 61%.

In the case of ATGAGAACAATCTCCC (sugars k3 d10 k3, PS), the target mRNA inhibition was determined as 0% (0.02 µM); 9% (0.078 µM); 40% (0.313 µM); 65% (1 µM); 64% (1.25 µM); 78% (5 µM). ATGAGATTACCCCTGG (sugars k3 d10 k3, PS) showed a target mRNA inhibition (1 µM) of 62%. The same measure, in the same setting: under “ATGAGGTTTTGATACC (sugars k3 d9 k3 e1, PS)” stands 20%; under ATGCAAGATTTACTTC (sugars k3 d10 k3, PS), 38%; under ATGGCTACAGATTGGA (sugars k3 d10 k3, PS), 72%. Same read-out and setting: under ATGGGATGAGGTAAGG (sugars k3 d10 k3, PS) stands 46%.

Turning to ATGGTGATCAGAAGCA (sugars k3 d10 k3, PS), the target mRNA inhibition runs as follows: (0.02 µM) 0%; (0.078 µM) 28%; (0.313 µM) 46%; (1 µM) 85%; (1.25 µM) 80%; (5 µM) 81%. Turning to ATGTAAAGTTTGTTAG (sugars k3 d10 k3, PS), the target mRNA inhibition (1 µM) is 12%. Same read-out and setting: for ATGTAGTGGGAGTCGG (sugars k3 d10 k3, PS) the value was 72%; for “ATGTATCTTATAAGAC (sugars k3 d9 k3 e1, PS)”, 24%. The same measure, in the same setting: under ATGTCATAAAAATCGC (sugars k3 d10 k3, PS) stands 53%; under ATGTTAGGACCCAGTC (sugars k3 d10 k3, PS), 60%; under ATGTTGACCTCAAATG (sugars k3 d10 k3, PS), 0%.

“ATGTTTATGTAAGCAC (sugars kkdddddddddkekek, PS)” showed a target mRNA inhibition (1 µM) of 61%.

With ATTAAGACAGTTGAGT (sugars k3 d10 k3, PS), under “1 µM”, the target mRNA inhibition is 34%. Still for that read-out and setting: for ATTAAGATGTCCAGGC (sugars k3 d10 k3, PS) the value was 31%; for ATTAAGCTTAGTATAT (sugars k3 d10 k3, PS), 10%. Same read-out and setting: under ATTACTTCTGATGTCC (sugars k3 d10 k3, PS) stands 65%; under ATTAGATGGTAAGGAG (sugars k3 d10 k3, PS), 4%.
